# What was measured:
# [1] = tested on: washed platelet samples, platelet aggregation induced by collagen; test: platelet aggregation test, washed platelets stimulated with collagen (light transmission); format: cell-based; details: for collagen-induced platelet aggregation: FIG. 8; for aggregation percentage: FIG. 9
# Procedure: FIG. 1 is a diagram illustrating a platelet aggregation test, in accordance with at least one embodiment of the present invention. In FIG. 1, N and C represent the administrations of niclosamide in 0.25% dimethyl sulfoxide (DMSO) or collagen respectively. The platelet aggregation test was performed in accordance with the standard procedure. Four washed platelet samples from the same source were treated with the same volume of niclosamide (0.5 μM, 1 μM, and 2 μM) or a solvent control respectively. Five minutes later, each washed platelet sample was treated with collagen (2 μM) to induce platelet aggregation. FIG. 1 illustrates the light transmission rates of each result. In FIG. 1, the X-axis represents time and the Y-axis represents the transmittance. Note that in FIG. 1, the four platelet aggregation tests performed simultaneously are presented sequentially on the X-axis to render the data readable for one skilled in the art. […] The platelet aggregation test was performed in accordance with the standard procedure. Four washed platelet samples from the same source were treated with the same volume of niclosamide (0.5 μM, 1 μM, and 2 μM) or a solvent control respectively. Five minutes, each washed platelet sample was treated with 2 μM collagen to induce platelet aggregation. The results were detected twenty minutes after the administration of collagen. In FIG. 2, the Y-axis represents the percentage of platelet aggregation, in which the transmittance of platelet-poor plasma is set as 100%. FIG. 8 is a diagram illustrating a platelet aggregation test, in accordance with at least one embodiment of the present invention. Four washed platelet samples from the same source were treated with different treatments at the same time. In FIG. 8, “D” represents the administration of 0.25% DMSO; “C” represents the administration of collagen; “N” represents the administration of niclosamide in 0.25% DMSO; and “S” represents the administration of a STAT-3 inhibitor, STA-21. […] Four washed platelet samples from the same source were treated with different treatments at the same time. In FIG. 9, “D” represents 0.25% DMSO; “STA-21” represents the STAT-3 inhibitor, STA-21; “Niclosamide” represents the niclosamide in 0.25% DMSO; and “Collagen” represents the stimulant, collagen.
# [2] = tested on: washed platelet samples, platelet aggregation induced by podoplanin; test: platelet aggregation test, washed platelets stimulated with podoplanin; format: cell-based; details: FIG. 6; niclosamide 0.5 μM, 1 μM or 2 μM vs solvent control; 0.4 μM podoplanin; read 20 min after podoplanin
# Procedure: FIG. 6 is a bar chart representing the quantitative results of a platelet aggregation test, in accordance with at least one embodiment of the present invention. All procedures in FIG. 6 are the same as the procedures in FIG. 2, except that the collagen used to stimulate platelet aggregation in FIG. 2 is substituted by podoplanin in FIG. 6. In this embodiment, four washed platelet samples from the same source were treated with the same volume of niclosamide (0.5 μM, 1 μM, and 2 μM) or a solvent control respectively. Five minutes, each washed platelet sample was treated with 0.4 μM podoplanin to induce platelet aggregation. The results were detected twenty minutes after the administration of podoplanin. In FIG. 6, the Y-axis represents the percentage of platelet aggregation, in which the transmittance of platelet-poor plasma is used as 100%.
# mice [3] = test: ferric chloride occlusive thrombosis of mesenteric arteries; format: in vivo; details: FIG. 11; mice 8-10 weeks; 20 mg/kg injected into the abdomen; 7.5% FeCl3 on mesenteric arteries for 2 min; DMSO control 5 minutes
# Procedure: FIG. 11 is diagram illustrating the occlusion time, in accordance with at least one embodiment of the present invention. Mice at 8-10 weeks of age were used in FIG. 11. About 20 nM 3,3′-Dihexyloxacarbocyanine iodide (DioC6), a fluorescent dye used for the staining of platelets, was injected into the orbital vein after 20 mg/kg niclosamide or 5% DMSO was injected into the abdomen. An hour later, isoflurane was provided based on the body weight to anesthetize the mice. Followed the standard procedure for studying occlusive thrombosis, Whatman #1 filter papers soaked with 7.5% ferric chloride (FeCl3) were attached to the mesenteric arteries for two minutes. The mesenteric arteries were then immersed in isotonic saline and placed under a fluorescence microscope (Macrofluo, objective 5.0/0.5 NA, Leica Micro-systems) to record the occlusion time and cessation of blood flow.
# [4] = tested on: washed platelet sample, clot formation induced by collagen; test: optical microscope images of platelet aggregation test; format: cell-based; details: FIG. 4C; 2 μM niclosamide and 2.5 μM collagen
# Procedure: FIGS. 4A-4C are optical microscope images of a platelet aggregation test, in accordance with at least one embodiment of the present invention. The platelet aggregation test was performed in accordance with the standard procedure on three washed platelet samples from the same source at the same time. […] In FIG. 4C, the washed platelet sample 10 received 2 μM niclosamide and 2.5 μM collagen; In FIG. 4B, the washed platelet sample 10 received 2.5 μM collagen and 0.25% DMSO with the same volume of the niclosamide in FIG. 4C. Note that 0.25% DMSO is the solvent of the niclosamide in FIG. 4C. […] In FIG. 4B, clots 20 formed as a result of the treatment of collagen and DMSO.
# pSYK and PLCγ2 = test: western blot of proteins in the signal transduction pathway of platelet aggregation; format: cell-based; details: FIG. 3; 2 μM niclosamide pretreatment, 2.5 μM collagen
# Procedure: FIG. 3 is a western blot image showing proteins in the signal transduction pathway of platelet aggregation, in accordance with at least one embodiment of the present invention. In FIG. 3, pSYK and PLCγ2 in the signal transduction pathway are suppressed in the washed platelet sample received 2 μM niclosamide, even that is treated with 2.5 μM collagen to induce platelet aggregation. In contrast, the pSYK and PLCγ2 in the washed platelet sample received a solvent control (0.25% DMSO) pretreatment are successfully activated after the 2.5 μM collagen treatment.
# [5] = Int J Risk Saf Med 20 (2008) 113-122; cited from earlier work
# mice [6] = test: tail bleeding assay; format: in vivo; details: FIG. 10; mice 8-10 weeks; 20 mg/kg injected into the abdomen, 1 h before; distal 3-mm tail segment amputated; DMSO control 5 minutes
# Procedure: FIG. 10 is diagram illustrating the bleeding time results, in accordance with at least one embodiment of the present invention. Mice at 8-10 weeks of age were used in FIG. 10. Isoflurane was provided based on the body weight to anesthetize the mice one hour after the 20 mg/kg niclosamide or 5% DMSO was injected into the abdomen. Followed the standard procedure of tail bleeding assay, the distal 3-mm segment of the tail was amputated with scalpel after the anesthetization. The tails were than immersed in isotonic saline at 37° C. to observe the bleeding time. […] However, the bleeding time for mice treated with niclosamide was extended to around 15 minutes.
"IC50 relative to STA-21 ([1]; FIGS. 8 and 9, collagen-induced platelet aggregation)",Structure (SMILES),"collagen-induced platelet aggregation ([1]; pretreated with 1.25 μM STA-21, 2 μM collagen)",aggregation percentage ([1]; 1.25 μM STA-21 and 2 μM collagen (DMSO control exceeds 60%)),percentage of platelet aggregation [2],occlusion time (mice [3]),"platelet aggregation induced by collagen (transmittance over time) ([1]; FIG. 1, niclosamide 0.5 μM, 1 μM, 2 μM given 5 min before collagen 2 μM)","percentage of platelet aggregation ([1]; FIG. 2, niclosamide 0.5 μM, 1 μM or 2 μM vs solvent control, 2 μM collagen, read 20 min after collagen, p<0.01)","collagen-induced platelet aggregation ([1]; pretreated with 0.25 μM niclosamide, 2 μM collagen)",aggregation percentage ([1]; 0.25 μM niclosamide and 2 μM collagen (DMSO control exceeds 60%)),platelet aggregation / clots under 20× optical microscope [4],pSYK and PLCγ2 in the signal transduction pathway (pSYK and PLCγ2),safety profile under current conditions of use [5],bleeding time (mice [6])
,"C[C@@H]1CC(=O)c2c(ccc3c2C(=O)c2cccc(O)c2C3=O)C1 [STA-21, ochromycinone]",suppressed,less than 40%,,,,,,,,,,
lower IC50 compared to STA-21,"O=C(Nc1ccc([N+](=O)[O-])cc1Cl)c1cc(Cl)ccc1O [niclosamide, 5-chloro-N-(2-chloro-4-nitrophenyl)-2-hydroxybenzamide]",,,significantly reduced,around 25 minutes,suppresses the platelet aggregation induced by collagen in a dose-dependent manner,significantly reduced,suppressed,less than 30%,No platelet aggregation is observed,suppressed,there is no information to suggest an unfavorable safety profile of the drug under current conditions of use,around 15 minutes

# From patent US11260034B2, “Method of using niclosamide derivatives” (CHANG GUNG UNIVERSITY, priority 2016, dated 2022)
